Experimental data as given in ChEMBL document CHEMBL5543175, “Discovery of Selective Proteolysis-Targeting Chimera Degraders Targeting PTP1B as Long-Term Hypoglycemic Agents” (J Med Chem, 2024).

How the values were obtained:
Assay type in all cases: cell-based
[1] = molecular target: T1, Protein cereblon/Tyrosine-protein phosphatase non-receptor type 1 (Homo sapiens, UniProt P18031+Q96SW2); assay: PROTAC activity at PTP1B/CRBN in insulin treated human HepG2 cells assessed as protein degradation at 5 nM incubated for 48 hrs by Western blot analysis relative to control
Target sequence in this assay (P18031 whole entry, looked up): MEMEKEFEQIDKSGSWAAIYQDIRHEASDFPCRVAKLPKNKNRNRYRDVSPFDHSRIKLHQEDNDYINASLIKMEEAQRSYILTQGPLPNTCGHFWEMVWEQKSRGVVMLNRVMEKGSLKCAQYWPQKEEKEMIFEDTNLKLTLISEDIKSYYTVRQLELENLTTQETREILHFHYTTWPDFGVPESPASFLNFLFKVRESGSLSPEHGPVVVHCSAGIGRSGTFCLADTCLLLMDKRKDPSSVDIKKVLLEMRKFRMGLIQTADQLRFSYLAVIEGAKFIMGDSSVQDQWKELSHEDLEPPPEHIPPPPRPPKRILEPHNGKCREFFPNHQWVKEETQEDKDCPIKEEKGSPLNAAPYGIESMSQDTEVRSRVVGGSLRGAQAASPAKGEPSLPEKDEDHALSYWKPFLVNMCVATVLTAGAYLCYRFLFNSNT
Target sequence in this assay (Q96SW2 whole entry, looked up): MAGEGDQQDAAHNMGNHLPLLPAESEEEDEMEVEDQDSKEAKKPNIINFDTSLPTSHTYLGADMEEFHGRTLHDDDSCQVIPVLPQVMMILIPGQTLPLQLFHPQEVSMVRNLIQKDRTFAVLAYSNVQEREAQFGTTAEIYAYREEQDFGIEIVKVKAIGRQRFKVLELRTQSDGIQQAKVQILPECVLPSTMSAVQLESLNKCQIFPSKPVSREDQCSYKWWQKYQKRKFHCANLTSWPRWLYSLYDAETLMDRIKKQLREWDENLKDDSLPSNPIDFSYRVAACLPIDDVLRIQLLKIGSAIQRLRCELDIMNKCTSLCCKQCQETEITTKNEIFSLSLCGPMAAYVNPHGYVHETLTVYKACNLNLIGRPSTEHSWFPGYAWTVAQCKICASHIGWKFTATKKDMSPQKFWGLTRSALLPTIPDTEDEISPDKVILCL

[2] = molecular target: T1, Protein cereblon/Tyrosine-protein phosphatase non-receptor type 1; assay: PROTAC activity at PTP1B/CRBN in insulin treated human HepG2 cells assessed as protein degradation at 5000 nM incubated for 48 hrs by Western blot analysis relative to control
Target sequence in this assay (P18031 whole entry, looked up): as the sequence (P18031 whole entry, looked up) above
Target sequence in this assay (Q96SW2 whole entry, looked up): as the sequence (Q96SW2 whole entry, looked up) above

[3] = molecular target: T1, Protein cereblon/Tyrosine-protein phosphatase non-receptor type 1; assay: PROTAC activity at PTP1B/CRBN in insulin treated human HepG2 cells assessed as protein degradation at 500 nM incubated for 48 hrs by Western blot analysis relative to control
Target sequence in this assay (P18031 whole entry, looked up): as the sequence (P18031 whole entry, looked up) above
Target sequence in this assay (Q96SW2 whole entry, looked up): as the sequence (Q96SW2 whole entry, looked up) above

[4] = molecular target: T1, Protein cereblon/Tyrosine-protein phosphatase non-receptor type 1; assay: PROTAC activity at PTP1B/CRBN in insulin treated human HepG2 cells assessed as protein degradation at 50 nM incubated for 48 hrs by Western blot analysis relative to control
Target sequence in this assay (P18031 whole entry, looked up): as the sequence (P18031 whole entry, looked up) above
Target sequence in this assay (Q96SW2 whole entry, looked up): as the sequence (Q96SW2 whole entry, looked up) above

[5] = molecular target: T1, Protein cereblon/Tyrosine-protein phosphatase non-receptor type 1; assay: PROTAC activity at PTP1B/CRBN in insulin treated human HepG2 cells assessed as protein degradation at 25 nM incubated for 72 hrs by Western blot analysis relative to control
Target sequence in this assay (P18031 whole entry, looked up): as the sequence (P18031 whole entry, looked up) above
Target sequence in this assay (Q96SW2 whole entry, looked up): as the sequence (Q96SW2 whole entry, looked up) above

[6] = molecular target: T1, Protein cereblon/Tyrosine-protein phosphatase non-receptor type 1; assay: PROTAC activity at PTP1B/CRBN in insulin treated human HepG2 cells assessed as protein degradation at 625 nM incubated for 72 hrs by Western blot analysis relative to control
Target sequence in this assay (P18031 whole entry, looked up): as the sequence (P18031 whole entry, looked up) above
Target sequence in this assay (Q96SW2 whole entry, looked up): as the sequence (Q96SW2 whole entry, looked up) above

[7] = molecular target: T1, Protein cereblon/Tyrosine-protein phosphatase non-receptor type 1; assay: PROTAC activity at PTP1B/CRBN in insulin treated human HepG2 cells assessed as protein degradation at 1250 nM incubated for 72 hrs by Western blot analysis relative to control
[8] = molecular target: T1, Protein cereblon/Tyrosine-protein phosphatase non-receptor type 1; assay: PROTAC activity at PTP1B/CRBN in insulin treated human HepG2 cells assessed as protein degradation at 125 nM incubated for 48 hrs by Western blot analysis relative to control
[9] = molecular target: T1, Protein cereblon/Tyrosine-protein phosphatase non-receptor type 1; assay: PROTAC activity at PTP1B/CRBN in insulin treated human HepG2 cells assessed as protein degradation at 125 nM incubated for 72 hrs by Western blot analysis relative to control
[10] = molecular target: T1, Protein cereblon/Tyrosine-protein phosphatase non-receptor type 1; assay: PROTAC activity at PTP1B/CRBN in insulin treated human HepG2 cells assessed as protein degradation incubated for 48 hrs by Western blot analysis
[11] = molecular target: T1, Protein cereblon/Tyrosine-protein phosphatase non-receptor type 1; assay: PROTAC activity at PTP1B/CRBN in insulin treated human HepG2 cells assessed as protein degradation at 625 nM incubated for 48 hrs by Western blot analysis relative to control
[12] = molecular target: T1, Protein cereblon/Tyrosine-protein phosphatase non-receptor type 1; assay: PROTAC activity at PTP1B/CRBN in insulin treated human HepG2 cells assessed as protein degradation at 1 nM incubated for 72 hrs by Western blot analysis relative to control
[13] = molecular target: T1, Protein cereblon/Tyrosine-protein phosphatase non-receptor type 1; assay: PROTAC activity at PTP1B/CRBN in insulin treated human HepG2 cells assessed as protein degradation at 25 nM incubated for 48 hrs by Western blot analysis relative to control
[14] = molecular target: T1, Protein cereblon/Tyrosine-protein phosphatase non-receptor type 1; assay: PROTAC activity at PTP1B/CRBN in insulin treated human HepG2 cells assessed as protein degradation at 1 nM incubated for 48 hrs by Western blot analysis relative to control
[15] = molecular target: T1, Protein cereblon/Tyrosine-protein phosphatase non-receptor type 1; assay: PROTAC activity at PTP1B/CRBN in insulin treated human HepG2 cells assessed as protein degradation at 1250 nM incubated for 48 hrs by Western blot analysis relative to control
[16] = molecular target: T1, Protein cereblon/Tyrosine-protein phosphatase non-receptor type 1; assay: PROTAC activity at PTP1B/CRBN in insulin treated human HepG2 cells assessed as protein degradation at 5 nM incubated for 72 hrs by Western blot analysis relative to control
[17] = molecular target: T1, Protein cereblon/Tyrosine-protein phosphatase non-receptor type 1; assay: PROTAC activity at PTP1B/CRBN in insulin treated human HepG2 cells assessed as protein degradation incubated for 72 hrs by Western blot analysis

| Structure (SMILES) | Activity [1] [%] | Activity [2] [%] | Activity [3] [%] | Activity [4] [%] | also measured |
| --- | --- | --- | --- | --- | --- |
| O=C1CCC(N2C(=O)c3cccc(NC(=O)CCCCCOCCOCCOCCOCCCCCCNC(=O)c4cccc(NC(=O)CSc5nc6ccccc6[nH]5)c4)c3C2=O)C(=O)N1 (stereo not drawn) | 32 | < 5 | < 5 | 17 | – |
| C[C@H]1[C@H](C)CC[C@]2(C(=O)NCCCCCCOCCOCCOCCOCC(=O)Nc3cccc4c3C(=O)N(C3CCC(=O)NC3=O)C4=O)CC[C@]3(C)C(=CC[C@@H]4[C@@]5(C)CC[C@H](O)C(C)(C)[C@@H]5CC[C@]43C)[C@H]12 (stereo partly drawn) | < 5 | 19 | 33 | 41 | Activity [5]: 48%; Activity [6]: 28%; Activity [7]: 61%; Activity [8]: 61%; Activity [9]: 32%; Activity [10]: Dose-Dependent Effect; DC50 [10]: 200 nM; Activity [11]: 68%; Activity [12]: 30%; Activity [13]: 23%; Activity [14]: 37%; Activity [15]: 35%; Activity [16]: 36%; Activity [17]: Dose-Dependent Effect; DC50 [17]: 310 nM |
| CC1(C)CC[C@]2(C(=O)NCCCCCCOCCOCCOCC(=O)Nc3cccc4c3C(=O)N(C3CCC(=O)NC3=O)C4=O)CC[C@]3(C)C(=CC[C@@H]4[C@@]5(C)CC[C@H](O)C(C)(C)[C@@H]5CC[C@]43C)[C@@H]2C1 (stereo partly drawn) | 84 | < 5 | 38 | 56 | – |
| O=C1CCC(N2C(=O)c3cccc(NC(=O)COCCOCCCCCCNC(=O)c4cccc(NC(=O)CSc5nc6ccccc6[nH]5)c4)c3C2=O)C(=O)N1 (stereo not drawn) | 24 | < 5 | 43 | 69 | – |
| O=C1CCC(N2C(=O)c3cccc(NC(=O)CCCCCOCCOCCOCCCCCCNC(=O)c4cccc(NC(=O)CSc5nc6ccccc6[nH]5)c4)c3C2=O)C(=O)N1 (stereo not drawn) | 8 | 30 | < 5 | 32 | – |
| CC1(C)CC[C@]2(C(=O)NCCCCCCOCCOCCCCCC(=O)Nc3cccc4c3C(=O)N(C3CCC(=O)NC3=O)C4=O)CC[C@]3(C)C(=CC[C@@H]4[C@@]5(C)CC[C@H](O)C(C)(C)[C@@H]5CC[C@]43C)[C@@H]2C1 (stereo partly drawn) | 45 | < 5 | 36 | 33 | – |
| CC1(C)CC[C@]2(C(=O)NCCCCCCOCCOCC(=O)Nc3cccc4c3C(=O)N(C3CCC(=O)NC3=O)C4=O)CC[C@]3(C)C(=CC[C@@H]4[C@@]5(C)CC[C@H](O)C(C)(C)[C@@H]5CC[C@]43C)[C@@H]2C1 (stereo partly drawn) | 57 | < 5 | 26 | 51 | – |
| O=C1CCC(N2C(=O)c3cccc(NC(=O)CCCCCCCCCCNC(=O)c4cccc(NC(=O)CSc5nc6ccccc6[nH]5)c4)c3C2=O)C(=O)N1 (stereo not drawn) | 32 | < 5 | 19 | 9 | – |
| O=C1CCC(N2C(=O)c3cccc(NC(=O)CCCCCOCCOCCCCCCNC(=O)c4cccc(NC(=O)CSc5nc6ccccc6[nH]5)c4)c3C2=O)C(=O)N1 (stereo not drawn) | < 5 | 10 | 13 | 17 | – |
| O=C1CCC(N2C(=O)c3cccc(NC(=O)COCCOCCOCCOCCCCCCNC(=O)c4cccc(NC(=O)CSc5nc6ccccc6[nH]5)c4)c3C2=O)C(=O)N1 (stereo not drawn) | 26 | 15 | 44 | 70 | – |
| C[C@H]1[C@H](C)CC[C@]2(C(=O)NCCCCCCNc3cccc4c3C(=O)N(C3CCC(=O)NC3=O)C4=O)CC[C@]3(C)C(=CC[C@@H]4[C@@]5(C)CC[C@H](O)C(C)(C)[C@@H]5CC[C@]43C)[C@H]12 (stereo partly drawn) | 11 | 14 | 23 | 67 | – |
| CC1(C)CC[C@]2(C(=O)NCCCCCCOCCOCCOCCOCC(=O)Nc3cccc4c3C(=O)N(C3CCC(=O)NC3=O)C4=O)CC[C@]3(C)C(=CC[C@@H]4[C@@]5(C)CC[C@H](O)C(C)(C)[C@@H]5CC[C@]43C)[C@@H]2C1 (stereo partly drawn) | 24 | 32 | 6 | 51 | – |
| CC1(C)CC[C@]2(C(=O)NCCCCCCNc3cccc4c3C(=O)N(C3CCC(=O)NC3=O)C4=O)CC[C@]3(C)C(=CC[C@@H]4[C@@]5(C)CC[C@H](O)C(C)(C)[C@@H]5CC[C@]43C)[C@@H]2C1 (stereo partly drawn) | 38 | 29 | 43 | 44 | – |
| C[C@H]1[C@H](C)CC[C@]2(C(=O)NCCCCCCOCCOCC(=O)Nc3cccc4c3C(=O)N(C3CCC(=O)NC3=O)C4=O)CC[C@]3(C)C(=CC[C@@H]4[C@@]5(C)CC[C@H](O)C(C)(C)[C@@H]5CC[C@]43C)[C@H]12 (stereo partly drawn) | 46 | < 5 | < 5 | 60 | – |
| CC1(C)CC[C@]2(C(=O)NCCCOCCCCOCCCNc3cccc4c3C(=O)N(C3CCC(=O)NC3=O)C4=O)CC[C@]3(C)C(=CC[C@@H]4[C@@]5(C)CC[C@H](O)C(C)(C)[C@@H]5CC[C@]43C)[C@@H]2C1 (stereo partly drawn) | 17 | 58 | 55 | 75 | Activity [5]: 66%; Activity [6]: 47%; Activity [7]: 53%; Activity [8]: 8%; Activity [9]: 43%; Activity [10]: Dose-Dependent Effect; DC50 [10]: 770 nM; Activity [11]: 45%; Activity [12]: 5%; Activity [13]: < 5%; Activity [14]: 33%; Activity [15]: 62%; Activity [16]: 54%; Activity [17]: Dose-Dependent Effect; DC50 [17]: 200 nM |
| C[C@H]1[C@H](C)CC[C@]2(C(=O)NCCCOCCCCOCCCNc3cccc4c3C(=O)N(C3CCC(=O)NC3=O)C4=O)CC[C@]3(C)C(=CC[C@@H]4[C@@]5(C)CC[C@H](O)C(C)(C)C5CC[C@]43C)[C@H]12 (stereo partly drawn) | 36 | 46 | 54 | 65 | – |
| C[C@H]1[C@H](C)CC[C@]2(C(=O)NCCCCCCOCCOCCCCCC(=O)Nc3cccc4c3C(=O)N(C3CCC(=O)NC3=O)C4=O)CC[C@]3(C)C(=CC[C@@H]4[C@@]5(C)CC[C@H](O)C(C)(C)[C@@H]5CC[C@]43C)[C@H]12 (stereo partly drawn) | 18 | 5 | 29 | 47 | – |
| O=C1CCC(N2C(=O)c3cccc(NC(=O)COCCOCCOCCCCCCNC(=O)c4cccc(NC(=O)CSc5nc6ccccc6[nH]5)c4)c3C2=O)C(=O)N1 (stereo not drawn) | 71 | < 5 | 13 | 38 | – |
| C[C@H]1[C@H](C)CC[C@]2(C(=O)NCCCCCCOCCOCCOCCCCCC(=O)Nc3cccc4c3C(=O)N(C3CCC(=O)NC3=O)C4=O)CC[C@]3(C)C(=CC[C@@H]4[C@@]5(C)CC[C@H](O)C(C)(C)[C@@H]5CC[C@]43C)[C@H]12 (stereo partly drawn) | 16 | 17 | 6 | < 5 | – |
| C[C@H]1[C@H](C)CC[C@]2(C(=O)NCCCCCCOCCOCCOCCOCCCCCC(=O)Nc3cccc4c3C(=O)N(C3CCC(=O)NC3=O)C4=O)CC[C@]3(C)C(=CC[C@@H]4[C@@]5(C)CC[C@H](O)C(C)(C)[C@@H]5CC[C@]43C)[C@H]12 (stereo partly drawn) | < 5 | 42 | 12 | < 5 | – |
| CC1(C)CC[C@]2(C(=O)NCCCOCCOCCOCCCNc3cccc4c3C(=O)N(C3CCC(=O)NC3=O)C4=O)CC[C@]3(C)C(=CC[C@@H]4[C@@]5(C)CC[C@H](O)C(C)(C)[C@@H]5CC[C@]43C)[C@@H]2C1 (stereo partly drawn) | 38 | 31 | 53 | 61 | Activity [5]: 58%; Activity [6]: 25%; Activity [7]: 24%; Activity [8]: 36%; Activity [9]: 41%; Activity [10]: Dose-Dependent Effect; DC50 [10]: 540 nM; Activity [11]: 51%; Activity [12]: < 5%; Activity [13]: < 5%; Activity [14]: 24%; Activity [15]: 78%; Activity [16]: 23%; Activity [17]: Dose-Dependent Effect; DC50 [17]: 3640 nM |
| CC1(C)CC[C@]2(C(=O)NCCCCCCOCCOCCOCCCCCC(=O)Nc3cccc4c3C(=O)N(C3CCC(=O)NC3=O)C4=O)CC[C@]3(C)C(=CC[C@@H]4[C@@]5(C)CC[C@H](O)C(C)(C)[C@@H]5CC[C@]43C)[C@@H]2C1 (stereo partly drawn) | 8 | 22 | < 5 | 16 | – |
